Results from US20030187240A1, “2' -modified oligonucleotides” (ISIS Pharmaceuticals, Inc., priority 1990, published 2003).
[OPr] = 2'-O-propyl ribonucleotide; d = 2'-deoxy (DNA); m = 2'-O-methyl; f = 2'-fluoro

Columns and labels:
[1] = test system: PKC-α mRNA; test: PKC-α mRNA levels by Northern blot analysis; assay type: cell-based, human; conditions: FIGS. 3, 4 and 5; result in words
Method: Oligonucleotides having SEQ ID NO: 4 were synthesized as uniformly phosphorothioate chimeric oligonucleotides having a centered deoxy gap of varying lengths flanked by 2′-O-methylated regions. These oligonucleotides (500 nM concentration) were tested for effects on PKC-α mRNA levels by Northern blot analysis.

[2] = test system: ras mRNA; test: Northern blot analysis of ras expression in T24 cells; assay type: cell-based, human; set-up: inhibition of ras expression / decrease of ras mRNA: concentration or dose not given beside the values
Method: The human urinary bladder cancer cell line T24 was obtained from the American Type Culture Collection (Rockville Md.). Cells were grown in McCoy's 5A medium with L-glutamine (GIBCO-BRL, Gaithersburg, Md.), supplemented with 10% heat-inactivated fetal calf serum and 50 U/ml each of penicillin and streptomycin. Cells were seeded on 100 mm plates. When they reached 70% confluency, they were treated with oligonucleotide. Plates were washed with 10 ml prewarmed PBS and 5 ml of OptiMEM (GIBCO) reduced-serum medium containing 2.5 μl DOTMA. Oligonucleotide was then added to the desired concentration. After 4 hours of treatment, the medium was replaced with McCoy's medium. Cells were harvested 48 hours after oligonucleotide treatment and RNA was isolated using a standard CsCl purification method. [Kingston in Current Protocols in Molecular Biology, F. M. Ausubel, R. Brent, R. E. Kingston, D. D. Moore, J. A. Smith, J. G. Seidman and K. Strahl, Eds., John Wiley and Sons, New York.] The human epithelioid carcinoma cell line HeLa 229 was obtained from the American Type Culture Collection (Bethesda, Md.). HeLa cells were maintained as monolayers on 6-well plates in Dulbecco's Modified Eagle's medium (DMEM) supplemented with 10 fetal bovine serum and 100 U/ml penicillin. Treatment with oligonucleotide and isolation of RNA were essentially as described above for T24 cells.
Northern hybridization: 10 μg of each RNA was electrophoresed on a 1.2% agarose/formaldehyde gel and transferred overnight to GeneBind 45 nylon membrane (Pharmacia LKB, Piscataway, N.J.) using standard methods. [Kingston in Current Protocols in Molecular Biology, F. M. Ausubel, R. Brent, R. E. Kingston, D. D. Moore, J. A. Smith, J. G. Seidman and K. Strahl, Eds., John Wiley and Sons, New York.] RNA was UV-crosslinked to the membrane. Double-stranded ^32P-labeled probes were synthesized using the Prime a Gene labeling kit (Promega, Madison Wis.). The ras probe was a SalI-NheI fragment of a cDNA clone of the activated (mutant) H-ras mRNA having a GGC-to-GTC mutation at codon-12. The control probe was G3PDH. Blots were prehybridized for 15 minutes at 68° C. with the QuickHyb hybridization solution (Stratagene, La Jolla, Calif.). The heat-denatured radioactive probe (2.5×10^6 counts/2 ml hybridization solution) mixed with 100 μl of 10 mg/ml salmon sperm DNA was added and the membrane was hybridized for 1 hour at 68° C. The blots were washed twice for 15 minutes at room temperature in 2×SSC/0.1% SDS and once for 30 minutes at 60° C. with 0.1×SSC/0.1%SDS. Blots were autoradiographed and the intensity of signal was quantitated using an ImageQuant PhosphorImager (Molecular Dynamics, Sunnyvale, Calif.). Northern blots were first hybridized with the ras probe, then stripped by boiling for 15 minutes in 0.1×SSC/0.1%SDS and rehybridized with the control G3PDH probe to check for correct sample loading.

[3] = test system: codon-12 point mutation of mutant (activated) H-ras RNA; assay type: cell-based, human
[4] = test system: complementary RNA strand (the sense strand); test: Thermal melting analysis of 2′-deoxy-2′-fluoro modified oligonucleotides (Table 1); assay type: binding
[5] = test system: RNA complement “Y” strand ribo(3′GAG CAU GGY AAG GCC AGG5′); test: Base-pair specificity: single base-pair mismatches and a bulge (Table 2); assay type: binding
Method: The ability of the 2′-modified oligonucleotides to hybridize to their complementary RNA or DNA sequences was determined by thermal melting analysis. The RNA complement was synthesized from T7 RNA polymerase and a template-promoter of DNA synthesized with an Applied Biosystems, Inc. 380B RNA species was purified by ion exchange using FPLC (LKB Pharmacia, Inc.). Natural antisense oligonucleotides or those containing 2′-modifications at specific locations were added to either the RNA or DNA complement at stoichiometric concentrations and the absorbance (260 nm) hyperchromicity upon duplex to random coil transition was monitored using a Gilford Response II spectrophotometer. These measurements were performed in a buffer of 10 mM Na-phosphate, pH 7.4, 0.1 mM EDTA, and NaCl to yield an ionic strength of 10 either 0.1 M or 1.0 M. Data was analyzed by a graphic representation of 1/Tm vs ln[Ct], where [Ct] was the total oligonucleotide concentration. From this analysis the thermodynamic parameters were determined. Based upon the information gained concerning the stability of the duplex of heteroduplex formed, the placement of modified pyrimidine into oligonucleotides were assessed for their effects on helix stability.
Base-pair specificity of 2′-deoxy-2′-fluoro modified oligonucleotides with the RNA complement (a “Y” strand) was determined by effecting single base-pair mismatches and a bulge. […] In Table 2, the underlined nucleotides represent nucleotides that include a 2′-deoxy-2′-fluoro substituent.

[6] = G°37, antisense strand duplexed with RNA sense strand
[7] = difference (delta Tm) to the unmodified strand
[8] = first Tm column, duplex with RNA sense strand
[9] = Y = C, mismatch, difference to Watson-Crick
[10] = Y = G, mismatch, difference to Watson-Crick
[11] = Y = None, bulged T/U, difference to Watson-Crick
[12] = Y = U, mismatch, difference to Watson-Crick
[13] = difference to the unmodified strand

7083 (TCTCGCTGGTGAGTTTC; antisense; sugars from the 5' end [OPr]3 d9 [OPr]5, all phosphorothioate, methylation of C not given here) [Oligonucleotide 7083]
effect on PKC-α mRNA levels [1]: most active in reducing PKC-α mRNA levels

7273 (AAAACGTCAGCCATGGTCCC; 2'-O-propyl/deoxy, mixed P=S/P=O backbone, chemistry not fully specified) [Oligonucleotide 7273]
effect on PKC-α mRNA levels [1]: more active than their 2′-O-methyl counterparts at lowering PKC-α mRNA levels

4998 (CTTATATTCCGTCATCGCTC; sugars from the 5' end m6 d7 m7, all phosphorothioate, methylation of C and T or U not given here) [Oligonucleotide 4998]
inhibition of ras expression / decrease of ras mRNA [2]: 84%

3984 (CCACACCGACGGCGCCC; chimeric 2'-O-methyl phosphorothioate, pattern not given here) [Oligonucleotide 3984]
inhibition of ras expression / decrease of ras mRNA [2]: 81% | inhibition of ras-luciferase activity [3]: greater inhibition of ras-luciferase activity than did oligonucleotide 2570

6653 (TTCTCGCTGGTGAGTTTC; antisense; sugars from the 5' end [OPr]3 d11 [OPr]4, all phosphorothioate, methylation of C not given here) [Oligonucleotide 6653]
effect on PKC-α mRNA levels [1]: most active in reducing PKC-α mRNA levels

ps(CGA CTA TGC AAG TAC) [reference compound]
G°37 [4, 6]: -7.58 ± 0.06 kcal/mol | Tm (° C.) [4, 7]: −11.2 °C | Tm (° C.) [4, 8]: 33.9 °C

CTC GTA CCT TCC GGT CC (CTCGTACCTTCCGGTCC; listed as DNA, chemistry not fully specified) [reference compound]
G°37 [4, 6]: -14.57 ± 0.13 kcal/mol | Tm (° C.) [4, 8]: 61.6 °C

oligonucleotide with the 2′-O-propyl diester flanking regions: SEQ ID NO: 1, phosphorothioate in the 7-base deoxy gap only, phosphodiester 2′-O-propyl flanking regions (DNA CCACACCGACGGCGCCC; 2'-O-propyl flanks, phosphorothioate gap, chemistry not fully specified)
effect on ras expression (ras-luciferase reporter system), chimeric backbone-modified oligonucleotides [3]: able to inhibit ras expression

C^MC^MA^M C^MA^MC^M CdGdAd CdGdG^M C^MG^MC^M C^MC^M [Oligonucleotide 3980]
inhibition of ras expression in T24 cells ([2]; result in words): inhibited ras expression

3980 (CCACACCGACGGCGCCC; chimeric 2'-O-methyl phosphorothioate, pattern not given here) [Oligonucleotide 3980]
inhibition of ras expression / decrease of ras mRNA [2]: 61% | inhibition of ras-luciferase activity [3]: next greatest inhibition

deoxy(CTC GTA CCT TTC CGG TCC) (CTCGTACCTTTCCGGTCC; DNA, backbone not given here) [reference compound]
G°37 ([5]; Y = A, Watson-Crick): -14.57 ± 0.13 kcal/mol | Tm (° C.) ([5]; Y = A, Watson-Crick): 61.6 °C | G°37 ([5]; Y = C, mismatch): -12.78 ± 0.11 kcal/mol | Tm (° C.) ([5]; Y = C, mismatch): 54.4 °C | G°37 [5, 9]: 1.79 ± 0.17 kcal/mol | Tm (° C.) [5, 9]: −7.2 °C | G°37 ([5]; Y = G, mismatch): -16.39 ± 0.25 kcal/mol | Tm (° C.) ([5]; Y = G, mismatch): 61.7 °C | G°37 [5, 10]: -1.82 ± 0.28 kcal/mol | Tm (° C.) [5, 10]: 0.1 °C | G°37 ([5]; Y = None, bulged T/U): -14.86 ± 0.35 kcal/mol | Tm (° C.) ([5]; Y = None, bulged T/U): 59.4 °C | G°37 [5, 11]: -0.284 ± 0.37 kcal/mol | Tm (° C.) [5, 11]: −2.2 °C | G°37 ([5]; Y = U, mismatch): -13.48 ± 0.17 kcal/mol | Tm (° C.) ([5]; Y = U, mismatch): 55.9 °C | G°37 [5, 12]: 1.09 ± 0.22 kcal/mol | Tm (° C.) [5, 12]: −5.7 °C

3979 (CCACACCGACGGCGCCC; chimeric 2'-O-methyl phosphorothioate, pattern not given here) [Oligonucleotide 3979]
activity at the highest concentration dose [3]: measurable activity | inhibition of ras-luciferase activity [3]: neither of the oligonucleotides having either the one or the three 2′-deoxy-erythro-pentofuranosyl nucleotide subsequences showed significant activity

CTTATATTCCGTCATCGCTC [Oligonucleotide 2502]
inhibition of ras expression / decrease of ras mRNA [2]: 26%

deoxy(CUC GUA CCU UUC CGG UCC) (CUCGUACCUUUCCGGUCC; sugars from the 5' end fffdfffffffffddffd, backbone, methylation of C and T or U not given here)
G°37 ([5]; Y = A, Watson-Crick): -27.80 ± 0.05 kcal/mol | Tm (° C.) ([5]; Y = A, Watson-Crick): 81.6 °C | G°37 ([5]; Y = C, mismatch): -21.98 ± 0.28 kcal/mol | Tm (° C.) ([5]; Y = C, mismatch): 73.8 °C | G°37 [5, 9]: 5.82 ± 0.28 kcal/mol | Tm (° C.) [5, 9]: −7.8 °C | G°37 ([5]; Y = G, mismatch): -21.69 ± 0.16 kcal/mol | Tm (° C.) ([5]; Y = G, mismatch): 77.8 °C | G°37 [5, 10]: 6.12 ± 0.17 kcal/mol | Tm (° C.) [5, 10]: −3.8 °C | G°37 ([5]; Y = None, bulged T/U): -22.87 ± 0.27 kcal/mol | Tm (° C.) ([5]; Y = None, bulged T/U): 75.5 °C | G°37 [5, 11]: 4.94 ± 0.27 kcal/mol | Tm (° C.) [5, 11]: −6.2 °C | G°37 ([5]; Y = U, mismatch): -18.68 ± 0.15 kcal/mol | Tm (° C.) ([5]; Y = U, mismatch): 73.6 °C | G°37 [5, 12]: 9.13 ± 0.16 kcal/mol | Tm (° C.) [5, 12]: −8.0 °C | specificity of duplex formation with the RNA complement ([5]; versus like-sequenced unmodified oligonucleotide): greater specificity than a like-sequenced unmodified oligonucleotide

3975 (CCACACCGACGGCGCCC; chimeric 2'-O-methyl phosphorothioate, pattern not given here) [Oligonucleotide 3975]
inhibition of ras-luciferase activity [3]: neither of the oligonucleotides having either the one or the three 2′-deoxy-erythro-pentofuranosyl nucleotide subsequences showed significant activity

CUC GUA CCU UCC GGU CC (CUCGUACCUUCCGGUCC; 2'-deoxy-2'-fluoro A, T, C, chemistry not fully specified)
G°37 [4, 6]: -27.81 ± 0.05 kcal/mol | Tm (° C.) [4, 7]: +1.4 °C | G°37 [4, 13]: -13.24 ± 0.14 kcal/mol | Tm (° C.) [4, 8]: 81.6 °C

CsCsAsCsAsCsCsGsAoCsGsGsCsGsCsCsC [Oligonucleotide 4248]
effect on ras expression (ras-luciferase reporter system), chimeric backbone-modified oligonucleotides [3]: just as active as a full P═S molecule

ps(CGA CUA UGC AAG UAC)
G°37 [4, 6]: -15.90 ± 0.34 kcal/mol | Tm (° C.)/subst. ([4]; delta Tm per 2′-fluoro substitution): +2.5 °C | Tm (° C.) [4, 7]: +27.0 °C | G°37 [4, 13]: -8.32 ± 0.34 kcal/mol | Tm (° C.) [4, 8]: 60.9 °C
